Laboratory results as given in patent publication US5389627A, “Cephem compounds” (priority 1993, dated 1995).
Converted amounts (≈) assume the structure as drawn. Like-named read-outs stand apart in the source and are kept apart here.

How the values were obtained:
[1] = Pharmacokinetics (plasma half-life); type: in vivo; details: SD Rat, mean value, read-out: Half-Life (T1/2)
Method: In order to investigate the pharmacokinetics properties of the compounds according to the present invention, the plasma half-life was determined in accordance with the method described in Antimicrobial Agents and Chemotherapy, 26(2), p.

P.aeruginosa ATCC27853 = experiment: In vitro antibacterial activity, minimum inhibitory concentration; type: cell-based; details: Pseudomonas aeruginosa
From the text: (§1) As reference compounds, Cefotaxime (CTX), Ceftazidime (CAZ) and Cefpirome (CPR) were employed.

K.pneumoniae C1040 = experiment: as above; type: cell-based; details: Klebsiella pneumoniae
From the text: as §1

S.aureus ATCC29213 = experiment: as above; type: cell-based; details: Staphylococcus aureus
From the text: as §1

S.aureus C4036 = experiment: as above; type: cell-based; details: Staphylococcus aureus
From the text: as §1

P.rettgeri ATCC9919 = experiment: as above; type: cell-based; details: Providencia rettgeri
From the text: as §1

S.typhimurium C4045 = experiment: as above; type: cell-based; details: Salmonella enterica, read-out: Minimum Inhibitory Concentration (MIC)
From the text: as §1

S.marcescens C1052 = experiment: as above; type: cell-based; details: Serratia marcescens
From the text: as §1

P.mirabilis ATCC25933 = experiment: as above; type: cell-based; details: Proteus mirabilis
From the text: as §1

S.marcescens ATCC27117 = experiment: as above; type: cell-based; details: Serratia marcescens
From the text: as §1

P.aeruginosa C2027 = experiment: as above; type: cell-based; details: Pseudomonas aeruginosa
From the text: as §1

E.coli ATCC25922 = experiment: as above; type: cell-based; details: Escherichia coli
From the text: as §1

K.oxytoca C4022 = experiment: as above; type: cell-based; details: Klebsiella oxytoca
From the text: as §1

S.epidermidis ATCC12228 = experiment: as above; type: cell-based; details: Staphylococcus epidermidis
From the text: as §1

P.aeruginosa C4070 = experiment: as above; type: cell-based; details: Pseudomonas aeruginosa
From the text: as §1

MRSA C2208 = experiment: as above; type: cell-based; details: Staphylococcus aureus, read-out: Minimum Inhibitory Concentration (MIC)
From the text: as §1

E.cloacae C4009 = experiment: as above; type: cell-based; details: Enterobacter cloacae
From the text: as §1

S.aureus Smith = experiment: as above; type: cell-based; details: Staphylococcus aureus, read-out: Minimum Inhibitory Concentration (MIC)
From the text: as §1

S.pyogenes C4003 = experiment: as above; type: cell-based; details: Streptococcus pyogenes
From the text: as §1

E.coli C4002 = experiment: as above; type: cell-based; details: Escherichia coli
From the text: as §1

P.aeruginosa ATCC10145 = experiment: as above; type: cell-based; details: Pseudomonas aeruginosa
From the text: as §1

S.Faecalis ATCC29212 = experiment: as above; type: cell-based; details: Enterococcus faecalis
From the text: as §1

S.pyogenes ATCC 8668 = experiment: as above; type: cell-based; details: Streptococcus pyogenes
From the text: as §1

E.cloacae C4008 = experiment: as above; type: cell-based; details: Enterobacter cloacae
From the text: as §1

E.coli ATCC10536 = experiment: as above; type: cell-based; details: Escherichia coli
From the text: as §1

K.pneumoniae ATCC10031 = experiment: as above; type: cell-based; details: Klebsiella pneumoniae
From the text: as §1

With `CO/N=C(\C(=O)N[C@@H]1C(=O)N2C(C(=O)[O-])=C(C[n+]3cccc4c3CCC4)CS[C@H]12)c1csc(N)n1` [CPR, Cefpirome, reference compound] the half-life [1] was 19.5 min, the MIC (P.aeruginosa ATCC27853; P.aeruginosa ATCC27853, read-out: Minimum Inhibitory Concentration (MIC)) was 3.13 µg/mL (≈ 6.08 µM) and the MIC (K.pneumoniae C1040; K.pneumoniae C1040, read-out: Minimum Inhibitory Concentration (MIC)) was 0.025 µg/mL (≈ 0.0486 µM). For the same molecule, the MIC (S.aureus ATCC29213; S.aureus ATCC29213, read-out: Minimum Inhibitory Concentration (MIC)) was 0.78 µg/mL (≈ 1.52 µM), the MIC (S.aureus C4036; S.aureus C4036, read-out: Minimum Inhibitory Concentration (MIC)) was 0.39 µg/mL (≈ 0.758 µM) and the MIC (P.rettgeri ATCC9919; P.rettgeri ATCC9919, read-out: Minimum Inhibitory Concentration (MIC)) was 0.013 µg/mL (≈ 0.0253 µM). It also gave an MIC (S.typhimurium C4045; S.typhimurium C4045) of 0.025 µg/mL (≈ 0.0486 µM), an MIC (S.marcescens C1052; S.marcescens C1052, read-out: Minimum Inhibitory Concentration (MIC)) of 0.05 µg/mL (≈ 0.0972 µM) and an MIC (P.mirabilis ATCC25933; P.mirabilis ATCC25933, read-out: Minimum Inhibitory Concentration (MIC)) of 0.05 µg/mL (≈ 0.0972 µM). It also gave an MIC (S.marcescens ATCC27117; S.marcescens ATCC27117, read-out: Minimum Inhibitory Concentration (MIC)) of 0.05 µg/mL (≈ 0.0972 µM), an MIC (P.aeruginosa C2027; P.aeruginosa C2027, read-out: Minimum Inhibitory Concentration (MIC)) of 0.39 µg/mL (≈ 0.758 µM) and an MIC (E.coli ATCC25922; E.coli ATCC25922, read-out: Minimum Inhibitory Concentration (MIC)) of 0.05 µg/mL (≈ 0.0972 µM). For the same molecule, the MIC (K.oxytoca C4022; K.oxytoca C4022, read-out: Minimum Inhibitory Concentration (MIC)) was 1.56 µg/mL (≈ 3.03 µM), the MIC (S.epidermidis ATCC12228; S.epidermidis ATCC12228, read-out: Minimum Inhibitory Concentration (MIC)) was 0.2 µg/mL (≈ 0.389 µM) and the MIC (P.aeruginosa C4070; P.aeruginosa C4070, read-out: Minimum Inhibitory Concentration (MIC)) was 6.25 µg/mL (≈ 12.1 µM). For the same molecule, the MIC (MRSA C2208; MRSA C2208) was greater than 100 µg/mL, the MIC (E.cloacae C4009; E.cloacae C4009, read-out: Minimum Inhibitory Concentration (MIC)) was 0.013 µg/mL (≈ 0.0253 µM) and the MIC (S.aureus Smith; S.aureus Smith) was 0.39 µg/mL (≈ 0.758 µM). It also gave an MIC (S.pyogenes C4003; S.pyogenes C4003, read-out: Minimum Inhibitory Concentration (MIC)) of 0.007 µg/mL (≈ 0.0136 µM), an MIC (E.coli C4002; E.coli C4002, read-out: Minimum Inhibitory Concentration (MIC)) of 0.05 µg/mL (≈ 0.0972 µM) and an MIC (P.aeruginosa ATCC10145; P.aeruginosa ATCC10145, read-out: Minimum Inhibitory Concentration (MIC)) of 6.25 µg/mL (≈ 12.1 µM). For the same molecule, the MIC (S.Faecalis ATCC29212) was 50 µg/mL (≈ 97.2 µM), the MIC (S.pyogenes ATCC 8668; ATCC8668, S.pyogenes ATCC 8668, read-out: Minimum Inhibitory Concentration (MIC)) was 0.007 µg/mL (≈ 0.0136 µM) and the MIC (E.cloacae C4008; E.cloacae C4008, read-out: Minimum Inhibitory Concentration (MIC)) was 0.013 µg/mL (≈ 0.0253 µM). The MIC (E.coli ATCC10536; E.coli ATCC10536, read-out: Minimum Inhibitory Concentration (MIC)) was 0.013 µg/mL (≈ 0.0253 µM) and the MIC (K.pneumoniae ATCC10031; K.pneumoniae ATCC10031, read-out: Minimum Inhibitory Concentration (MIC)) was 0.013 µg/mL (≈ 0.0253 µM).
For `CC(C)(O/N=C(\C(=O)N[C@@H]1C(=O)N2C(C(=O)[O-])=C(C[n+]3ccccc3)CS[C@H]12)c1csc(N)n1)C(=O)O` [CAZ, Ceftazidime, reference compound], the half-life ([1]; in vivo) was 12.3 min, the MIC (P.aeruginosa ATCC27853; ATCC27853, read-out: Minimum Inhibitory Concentration (MIC)) was 3.13 µg/mL (≈ 5.73 µM) and the MIC (K.pneumoniae C1040; C1040, read-out: Minimum Inhibitory Concentration (MIC)) was 0.05 µg/mL (≈ 0.0915 µM). The MIC (S.aureus ATCC29213; ATCC29213, read-out: Minimum Inhibitory Concentration (MIC)) was 6.25 µg/mL (≈ 11.4 µM), the MIC (S.aureus C4036; C4036, read-out: Minimum Inhibitory Concentration (MIC)) was 6.25 µg/mL (≈ 11.4 µM) and the MIC (P.rettgeri ATCC9919; ATCC9919, read-out: Minimum Inhibitory Concentration (MIC)) was 0.025 µg/mL (≈ 0.0457 µM). It also gave an MIC (S.typhimurium C4045; TYPHIMURIUM) of 0.2 µg/mL (≈ 0.366 µM), an MIC (S.marcescens C1052; C1052, read-out: Minimum Inhibitory Concentration (MIC)) of 0.2 µg/mL (≈ 0.366 µM) and an MIC (P.mirabilis ATCC25933; ATCC25933, read-out: Minimum Inhibitory Concentration (MIC)) of 0.05 µg/mL (≈ 0.0915 µM). For the same molecule, the MIC (S.marcescens ATCC27117; ATCC27117, read-out: Minimum Inhibitory Concentration (MIC)) was 0.1 µg/mL (≈ 0.183 µM), the MIC (P.aeruginosa C2027; C2027, read-out: Minimum Inhibitory Concentration (MIC)) was 0.78 µg/mL (≈ 1.43 µM) and the MIC (E.coli ATCC25922; ATCC25922, read-out: Minimum Inhibitory Concentration (MIC)) was 0.2 µg/mL (≈ 0.366 µM). It also gave an MIC (K.oxytoca C4022; C4022, read-out: Minimum Inhibitory Concentration (MIC)) of 0.78 µg/mL (≈ 1.43 µM), an MIC (S.epidermidis ATCC12228; ATCC12228, read-out: Minimum Inhibitory Concentration (MIC)) of 3.13 µg/mL (≈ 5.73 µM) and an MIC (P.aeruginosa C4070; C4070, read-out: Minimum Inhibitory Concentration (MIC)) of 1.56 µg/mL (≈ 2.85 µM). The MIC (MRSA C2208; MRSA) was greater than 100 µg/mL, the MIC (E.cloacae C4009; C4009, read-out: Minimum Inhibitory Concentration (MIC)) was 0.05 µg/mL (≈ 0.0915 µM) and the MIC (S.aureus Smith) was 6.25 µg/mL (≈ 11.4 µM). The MIC (S.pyogenes C4003; C4003, read-out: Minimum Inhibitory Concentration (MIC)) was 0.2 µg/mL (≈ 0.366 µM), the MIC (E.coli C4002; C4002, read-out: Minimum Inhibitory Concentration (MIC)) was 0.1 µg/mL (≈ 0.183 µM) and the MIC (P.aeruginosa ATCC10145; ATCC10145, read-out: Minimum Inhibitory Concentration (MIC)) was 1.56 µg/mL (≈ 2.85 µM). It also gave an MIC (S.Faecalis ATCC29212) greater than 100 µg/mL, an MIC (S.pyogenes ATCC 8668; ATCC8668, read-out: Minimum Inhibitory Concentration (MIC)) of 0.1 µg/mL (≈ 0.183 µM) and an MIC (E.cloacae C4008; C4008, read-out: Minimum Inhibitory Concentration (MIC)) of 0.05 µg/mL (≈ 0.0915 µM). It also gave an MIC (E.coli ATCC10536; ATCC10536, read-out: Minimum Inhibitory Concentration (MIC)) of 0.05 µg/mL (≈ 0.0915 µM) and an MIC (K.pneumoniae ATCC10031; ATCC10031, read-out: Minimum Inhibitory Concentration (MIC)) of 0.05 µg/mL (≈ 0.0915 µM).
